What all share (assay type): in vivo, human
For test [1], the system named is patients who either failed to ovulate or ovulated with an endometrial thickness <5 mm in response to CC. The test is described as follows: Letrozole cycles vs CC cycles in patients with inadequate response to CC (Example 2). As for the experimental part:
HCG 10,000 IU was given to trigger ovulation. CC was given in a dose of 50-100 mg on days 3-7 or 5-9.

The test system of test [2] is PCOS and unexplained infertility undergoing IUI. Put plainly: Letrozole for Ovulation Induction: Summary (Example 5). The text has this: Patient Group: PCOS and unexplained infertility undergoing IUI.
Results: Pregnancy rate was higher with Letrozole VS CC in both kinds of regimen, ovulation rate was higher with Letrozole VS CC in PCOS patients (not reported for unexplained fertility), endometrial thickness was better with Letrozole.

Test [3] has as its system infertile patients (3 with PCOS and 4 with unexplained infertility). Put plainly: Letrozole alone in a single dose, ovarian stimulation and cycle monitoring for IUI (Example 3). On the procedure:
The estradiol levels in 9 treatment cycles in 7 infertile patients (3 with PCOS and 4 with unexplained infertility) undergoing ovarian stimulation and cycle monitoring for IUI who received a single 20 mg dose of letrozole on day 3 of the cycle. Follicle development was monitored by transvaginal ultrasound and by serum levels of estradiol and LH.

[4] abbreviates: mean, single 20 mg dose on day 3.
The mark [5] stands for this setting: mean, single 20 mg dose on day 3, listed as letrozole.
The mark [6] stands for this setting: single 20 mg dose on day 3, spread in brackets.

As to `CCN(CC)CCOc1ccc(C(=C(Cl)c2ccccc2)c2ccccc2)cc1.O=C(O)CC(O)(CC(=O)O)C(=O)O` [CC], in test [1] (Mean), the “Day of hCG administration, Mean” value was found to be 12.6; the “Endometrial Thickness (Cm.), Mean” value was 0.5 Cm; the “Estradiol (pmol/L) on day of hCG administration, Mean” value is 2145 pmol/L; the “Estradiol per mature follicle (pmol/L), Mean” value is 1278 pmol/L. Further, in test [1] (Mean), the “Follicles > 1.5 Cm on day of hCG administration, Mean” value stood at 1.9; the “LH on day of hCG administration (IU/L), Mean” value came out at 16 IU/L; the “Number of Days from last letrozole tablet to hCG day, Mean” value turned out to be 4.4. For the same compound, in test [1] (Median), the “Day of hCG administration, Median” value is given as 12; the “Endometrial Thickness (Cm.), Median” value was found to be 0.4 Cm; the “Estradiol (pmol/L) on day of hCG administration, Median” value is listed as 1668 pmol/L; the “Estradiol per mature follicle (pmol/L), Median” value was 1486 pmol/L. Further, in test [1] (Median), the “Follicles > 1.5 Cm on day of hCG administration, Median” value was 2; the “LH on day of hCG administration (IU/L), Median” value was 8 IU/L; the “Number of Days from last letrozole tablet to hCG day, Median” value was 4. In addition, in test [1] (Range), the “Day of hCG administration, Range” value is reported as 11-16; the “Endometrial Thickness (Cm.), Range” value is 0.4-0.8 Cm; the “Estradiol (pmol/L) on day of hCG administration, Range” value was in the range of 362 to 5210 pmol/L; the “Estradiol per mature follicle (pmol/L), Range” value lay in the range of 177 to 2404 pmol/L. In test [1] (Range), the “Follicles > 1.5 Cm on day of hCG administration, Range” value is given as 1-5; the “LH on day of hCG administration (IU/L), Range” value is 3-66 IU/L; the “Number of Days from last letrozole tablet to hCG day, Range” value was 2-7.

Consider `N#Cc1ccc(C(c2ccc(C#N)cc2)n2cncn2)cc1` [Letrozole, letrozole], for which the ovulation rate result in test [2] (Letrozole VS CC in PCOS patients) is “higher”. Also, in test [2] (Letrozole VS CC in both kinds of regimen (alone in PCOS; plus FSH in unexplained infertility)), the Pregnancy rate result is on record as “higher”. Further, in test [2] (Letrozole vs CC), the endometrial thickness result is reported as “better”. In test [3] (7 patients, 9 treatment cycles, single 20 mg dose), the “Pregnancy was achieved (patients)” value was “one”. Moreover, in test [3] (setting [4]), the “Estradiol on hCG day (pmol/L)” value is reported as 831 (359) pmol/L and the “Estradiol/mature follicle (pmol/L)” value was 390 (74) pmol/L. Further, in test [3] (setting [5]), the “Estradiol on hCG day” value was determined as 831 pmol/L and the “Estradiol/mature follicle” value is reported as 390 pmol/L. Also, in test [3] (setting [6]), the “Endometrial thickness on hCG day (cm)” value was 0.9 (0.11) cm, the “Follicles > 1.5 cm” value is given as 2.29 (1.3) and the “LH (IU/L)” value was 19.1 (12.7) IU/L.
